Results: article PMC10150366, “Discovery of an In Vivo Chemical Probe for BCL6 Inhibition by Optimization of Tricyclic Quinolinones” (Journal of Medicinal Chemistry, 2023)
pEC50, pIC50: −log10 of the molar value.

What was measured:
[1] = target: HTR2A (Homo sapiens, UniProt P28223); assay: SAFETYscan Calcium Flux HTR2A Antagonist; type: cell-based
Excerpt: (§1) Supplement jm3c00155_si_002.xlsx, sheet "SAFETYScan" | column: RC50 (uM); Max Response

[2] = target: nAChR(a4/b2) (Homo sapiens, UniProt P17787+P43681); assay: SAFETYscan Ion Channel nAChR(a4/b2) Blocker; type: cell-based
Excerpt: as §1

[3] = target: DRD1 (Homo sapiens, UniProt P21728); assay: SAFETYscan cAMP DRD1 Agonist; type: cell-based
Excerpt: as §1

[4] = target: VEGFR2 (Homo sapiens, UniProt P35968); assay: SAFETYscan Kinases Binding VEGFR2 Inhibitor
Excerpt: as §1

[5] = target: OPRK1 (Homo sapiens, UniProt P41145); assay: SAFETYscan cAMP OPRK1 Antagonist; type: cell-based
Excerpt: as §1

[6] = target: T1, CHRM2 (Homo sapiens, UniProt P08172); assay: SAFETYscan cAMP CHRM2 Agonist; type: cell-based
T1 sequence (P08172 1-466): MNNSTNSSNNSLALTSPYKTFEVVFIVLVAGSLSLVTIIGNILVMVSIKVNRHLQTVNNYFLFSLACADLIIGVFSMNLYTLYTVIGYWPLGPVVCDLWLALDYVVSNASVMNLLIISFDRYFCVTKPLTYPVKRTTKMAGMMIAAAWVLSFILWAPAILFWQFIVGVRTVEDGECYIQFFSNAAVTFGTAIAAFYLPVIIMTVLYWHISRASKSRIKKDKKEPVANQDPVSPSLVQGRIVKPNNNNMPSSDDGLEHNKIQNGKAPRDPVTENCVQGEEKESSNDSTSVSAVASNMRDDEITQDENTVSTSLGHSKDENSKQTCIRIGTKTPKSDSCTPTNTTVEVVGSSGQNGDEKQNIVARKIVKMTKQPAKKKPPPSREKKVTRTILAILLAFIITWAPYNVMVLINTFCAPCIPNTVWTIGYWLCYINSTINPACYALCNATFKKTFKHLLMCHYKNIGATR
Excerpt: (§2) Supplement jm3c00155_si_002.xlsx, sheet "SAFETYScan" | column: RC50 (uM); Hill; Max Response

[7] = target: HTR1B (Homo sapiens, UniProt P28222); assay: SAFETYscan cAMP HTR1B Agonist; type: cell-based
Excerpt: as §2

[8] = target: SERT (Homo sapiens, UniProt P31645); assay: SAFETYscan Transporter SERT Blocker; type: cell-based
Excerpt: as §1

[9] = target: T2, ADRA1A (Homo sapiens, UniProt P35348); assay: SAFETYscan Calcium Flux ADRA1A Agonist; type: cell-based
T2 sequence (P35348 1-466): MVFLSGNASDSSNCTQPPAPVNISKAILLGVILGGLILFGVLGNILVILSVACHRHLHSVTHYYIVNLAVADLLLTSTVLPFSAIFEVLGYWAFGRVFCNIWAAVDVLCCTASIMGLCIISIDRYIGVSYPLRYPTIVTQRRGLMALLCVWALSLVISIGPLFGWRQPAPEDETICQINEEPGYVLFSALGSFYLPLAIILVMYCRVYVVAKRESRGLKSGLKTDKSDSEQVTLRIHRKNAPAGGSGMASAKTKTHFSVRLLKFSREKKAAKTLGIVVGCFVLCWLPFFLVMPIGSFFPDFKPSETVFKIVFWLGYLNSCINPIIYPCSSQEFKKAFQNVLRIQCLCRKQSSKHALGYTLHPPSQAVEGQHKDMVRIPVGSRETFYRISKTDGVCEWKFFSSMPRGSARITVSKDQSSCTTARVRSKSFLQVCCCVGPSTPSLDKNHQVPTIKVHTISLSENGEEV
Excerpt: as §1

[10] = target: T3, HTR3A (Homo sapiens, UniProt P46098); assay: SAFETYscan Ion Channel HTR3A Blocker; type: cell-based
T3 sequence (P46098 24-478): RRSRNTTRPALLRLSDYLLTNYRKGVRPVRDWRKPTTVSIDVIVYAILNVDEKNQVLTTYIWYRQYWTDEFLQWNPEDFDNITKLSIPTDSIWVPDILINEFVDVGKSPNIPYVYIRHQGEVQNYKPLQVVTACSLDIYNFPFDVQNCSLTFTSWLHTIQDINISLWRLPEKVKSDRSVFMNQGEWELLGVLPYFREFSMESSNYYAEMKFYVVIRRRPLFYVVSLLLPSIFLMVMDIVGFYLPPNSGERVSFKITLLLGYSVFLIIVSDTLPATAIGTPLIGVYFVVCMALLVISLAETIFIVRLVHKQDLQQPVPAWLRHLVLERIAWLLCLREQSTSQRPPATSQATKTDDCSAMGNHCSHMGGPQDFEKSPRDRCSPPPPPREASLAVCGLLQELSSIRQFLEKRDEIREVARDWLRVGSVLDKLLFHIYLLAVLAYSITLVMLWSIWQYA
Excerpt: as §1

[11] = target: COX1 (Homo sapiens, UniProt P23219); assay: SAFETYscan Enzymatic COX1 Inhibitor; type: biochemical
Excerpt: as §2

[12] = target: OPRM1 (Homo sapiens, UniProt P35372); assay: SAFETYscan cAMP OPRM1 Antagonist; type: cell-based
Excerpt: as §2

[13] = target: INSR (Homo sapiens, UniProt P06213); assay: SAFETYscan Kinases Binding INSR Inhibitor
Excerpt: as §1

[14] = target: T4, HTR1A (Homo sapiens, UniProt P08908); assay: SAFETYscan cAMP HTR1A Antagonist; type: cell-based
T4 sequence (P08908 1-422): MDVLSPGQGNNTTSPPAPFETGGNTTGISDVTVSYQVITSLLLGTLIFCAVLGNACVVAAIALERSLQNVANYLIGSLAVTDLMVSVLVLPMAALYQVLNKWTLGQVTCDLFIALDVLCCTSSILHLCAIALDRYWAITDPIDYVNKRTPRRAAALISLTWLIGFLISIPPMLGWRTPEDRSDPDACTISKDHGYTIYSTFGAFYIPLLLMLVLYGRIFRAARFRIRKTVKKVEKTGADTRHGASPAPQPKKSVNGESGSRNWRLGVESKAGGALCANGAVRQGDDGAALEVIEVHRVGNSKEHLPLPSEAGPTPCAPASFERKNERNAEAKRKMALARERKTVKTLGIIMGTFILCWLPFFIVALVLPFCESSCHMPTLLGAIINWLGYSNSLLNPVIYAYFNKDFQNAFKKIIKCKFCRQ
Excerpt: as §1

Chain of COX1 (P23219 24-599): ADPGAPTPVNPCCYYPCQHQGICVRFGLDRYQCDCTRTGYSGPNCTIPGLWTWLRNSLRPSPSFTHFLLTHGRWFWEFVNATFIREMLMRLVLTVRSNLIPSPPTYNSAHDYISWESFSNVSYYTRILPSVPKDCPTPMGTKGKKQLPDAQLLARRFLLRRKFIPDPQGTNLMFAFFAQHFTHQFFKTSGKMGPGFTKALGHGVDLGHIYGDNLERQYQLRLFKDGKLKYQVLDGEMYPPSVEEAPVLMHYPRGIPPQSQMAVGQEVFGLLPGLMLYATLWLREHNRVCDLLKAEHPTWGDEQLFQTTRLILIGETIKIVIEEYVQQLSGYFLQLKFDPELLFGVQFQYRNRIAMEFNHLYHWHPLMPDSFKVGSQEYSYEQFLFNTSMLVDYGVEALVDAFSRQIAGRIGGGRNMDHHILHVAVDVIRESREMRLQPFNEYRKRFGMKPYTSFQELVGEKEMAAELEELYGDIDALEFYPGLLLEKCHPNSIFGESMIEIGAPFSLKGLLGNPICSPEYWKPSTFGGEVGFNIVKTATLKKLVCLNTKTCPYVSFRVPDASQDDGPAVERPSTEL
Chain of HTR1B (P28222 whole entry): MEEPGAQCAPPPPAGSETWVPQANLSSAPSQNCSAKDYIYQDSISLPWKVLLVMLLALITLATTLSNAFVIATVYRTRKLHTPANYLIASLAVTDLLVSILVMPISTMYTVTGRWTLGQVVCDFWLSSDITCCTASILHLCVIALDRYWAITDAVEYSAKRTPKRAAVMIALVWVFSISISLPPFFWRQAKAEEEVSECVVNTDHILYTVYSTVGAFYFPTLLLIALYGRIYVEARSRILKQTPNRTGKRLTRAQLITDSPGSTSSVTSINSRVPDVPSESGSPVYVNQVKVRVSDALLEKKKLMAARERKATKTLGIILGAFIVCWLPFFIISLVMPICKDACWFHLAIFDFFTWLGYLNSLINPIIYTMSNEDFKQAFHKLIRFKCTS
Chain of OPRM1 (P35372 whole entry): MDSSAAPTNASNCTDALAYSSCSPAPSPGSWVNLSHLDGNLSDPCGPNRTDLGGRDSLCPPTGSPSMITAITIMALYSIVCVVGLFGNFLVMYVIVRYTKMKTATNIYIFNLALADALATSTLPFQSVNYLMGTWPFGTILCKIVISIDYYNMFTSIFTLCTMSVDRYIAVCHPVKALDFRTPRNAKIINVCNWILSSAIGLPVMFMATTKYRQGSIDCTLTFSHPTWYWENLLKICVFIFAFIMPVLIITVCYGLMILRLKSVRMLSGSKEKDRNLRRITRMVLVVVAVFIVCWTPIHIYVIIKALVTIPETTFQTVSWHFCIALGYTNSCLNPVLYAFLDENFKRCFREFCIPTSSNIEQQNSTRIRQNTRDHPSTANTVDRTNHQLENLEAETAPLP
Chain of INSR (P06213 28-1382): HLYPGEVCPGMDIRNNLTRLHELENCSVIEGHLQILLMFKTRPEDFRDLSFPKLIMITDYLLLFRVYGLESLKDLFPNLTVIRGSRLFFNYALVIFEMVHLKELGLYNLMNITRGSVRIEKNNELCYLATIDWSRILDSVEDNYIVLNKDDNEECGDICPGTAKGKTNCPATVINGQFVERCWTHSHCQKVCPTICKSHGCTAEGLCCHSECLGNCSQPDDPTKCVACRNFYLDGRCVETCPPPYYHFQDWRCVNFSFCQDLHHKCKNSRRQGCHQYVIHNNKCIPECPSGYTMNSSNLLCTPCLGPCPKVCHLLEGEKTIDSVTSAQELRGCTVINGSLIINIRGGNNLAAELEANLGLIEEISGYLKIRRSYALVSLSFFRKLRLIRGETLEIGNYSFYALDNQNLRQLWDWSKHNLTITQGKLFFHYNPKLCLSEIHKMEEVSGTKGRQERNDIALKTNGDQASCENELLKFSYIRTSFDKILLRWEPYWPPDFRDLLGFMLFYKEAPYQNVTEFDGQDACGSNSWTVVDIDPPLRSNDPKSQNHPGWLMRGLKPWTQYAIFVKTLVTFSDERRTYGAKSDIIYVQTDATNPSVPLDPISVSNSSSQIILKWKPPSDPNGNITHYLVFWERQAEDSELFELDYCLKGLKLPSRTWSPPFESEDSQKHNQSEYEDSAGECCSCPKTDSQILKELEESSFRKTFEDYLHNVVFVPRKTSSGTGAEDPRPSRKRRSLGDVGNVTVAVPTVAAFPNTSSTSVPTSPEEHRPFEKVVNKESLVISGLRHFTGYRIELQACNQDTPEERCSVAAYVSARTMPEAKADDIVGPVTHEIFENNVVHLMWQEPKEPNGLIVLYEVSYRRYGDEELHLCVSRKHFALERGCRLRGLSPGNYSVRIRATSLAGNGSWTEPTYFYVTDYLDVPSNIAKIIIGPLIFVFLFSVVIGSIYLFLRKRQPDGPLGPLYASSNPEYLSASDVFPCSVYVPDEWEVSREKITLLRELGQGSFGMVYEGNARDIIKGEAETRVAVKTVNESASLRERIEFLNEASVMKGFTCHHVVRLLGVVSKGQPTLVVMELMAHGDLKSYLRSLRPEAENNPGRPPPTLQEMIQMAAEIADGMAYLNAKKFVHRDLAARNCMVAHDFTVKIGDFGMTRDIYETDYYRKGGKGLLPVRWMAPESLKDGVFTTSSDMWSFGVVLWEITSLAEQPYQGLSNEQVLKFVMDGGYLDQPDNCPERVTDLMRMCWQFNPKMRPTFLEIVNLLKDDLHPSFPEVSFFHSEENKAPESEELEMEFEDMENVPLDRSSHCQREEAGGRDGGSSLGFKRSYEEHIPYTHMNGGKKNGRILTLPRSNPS
Chain of DRD1 (P21728 whole entry): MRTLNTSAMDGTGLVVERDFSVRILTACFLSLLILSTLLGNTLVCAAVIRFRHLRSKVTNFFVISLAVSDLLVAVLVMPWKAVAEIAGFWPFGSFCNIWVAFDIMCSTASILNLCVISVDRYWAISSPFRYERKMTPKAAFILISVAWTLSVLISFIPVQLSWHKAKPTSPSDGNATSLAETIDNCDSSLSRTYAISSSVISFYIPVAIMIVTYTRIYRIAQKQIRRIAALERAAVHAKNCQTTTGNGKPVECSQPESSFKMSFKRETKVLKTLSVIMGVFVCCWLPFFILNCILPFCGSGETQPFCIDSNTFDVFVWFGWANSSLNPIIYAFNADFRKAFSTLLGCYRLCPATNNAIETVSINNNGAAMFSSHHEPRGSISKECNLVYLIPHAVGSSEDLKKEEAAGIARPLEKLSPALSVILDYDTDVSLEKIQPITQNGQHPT
Chain of nAChR(a4/b2) (P43681 29-627 limits assumed): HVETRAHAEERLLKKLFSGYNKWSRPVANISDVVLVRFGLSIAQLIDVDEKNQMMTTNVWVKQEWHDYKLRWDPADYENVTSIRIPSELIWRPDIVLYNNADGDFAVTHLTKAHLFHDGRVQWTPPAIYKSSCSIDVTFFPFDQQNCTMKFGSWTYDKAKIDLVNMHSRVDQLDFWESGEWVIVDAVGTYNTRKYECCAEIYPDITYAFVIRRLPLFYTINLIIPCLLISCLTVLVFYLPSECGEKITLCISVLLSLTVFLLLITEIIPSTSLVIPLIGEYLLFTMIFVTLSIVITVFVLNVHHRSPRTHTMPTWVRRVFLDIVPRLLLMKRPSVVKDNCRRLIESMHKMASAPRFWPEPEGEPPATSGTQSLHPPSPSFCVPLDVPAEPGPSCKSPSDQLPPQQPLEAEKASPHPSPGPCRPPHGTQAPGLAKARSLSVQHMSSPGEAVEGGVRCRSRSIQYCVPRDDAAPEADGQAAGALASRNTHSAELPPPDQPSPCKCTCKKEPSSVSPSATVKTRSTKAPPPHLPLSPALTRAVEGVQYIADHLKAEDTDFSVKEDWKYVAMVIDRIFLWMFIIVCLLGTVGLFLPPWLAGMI
Chain of nAChR(a4/b2) (P17787 26-502): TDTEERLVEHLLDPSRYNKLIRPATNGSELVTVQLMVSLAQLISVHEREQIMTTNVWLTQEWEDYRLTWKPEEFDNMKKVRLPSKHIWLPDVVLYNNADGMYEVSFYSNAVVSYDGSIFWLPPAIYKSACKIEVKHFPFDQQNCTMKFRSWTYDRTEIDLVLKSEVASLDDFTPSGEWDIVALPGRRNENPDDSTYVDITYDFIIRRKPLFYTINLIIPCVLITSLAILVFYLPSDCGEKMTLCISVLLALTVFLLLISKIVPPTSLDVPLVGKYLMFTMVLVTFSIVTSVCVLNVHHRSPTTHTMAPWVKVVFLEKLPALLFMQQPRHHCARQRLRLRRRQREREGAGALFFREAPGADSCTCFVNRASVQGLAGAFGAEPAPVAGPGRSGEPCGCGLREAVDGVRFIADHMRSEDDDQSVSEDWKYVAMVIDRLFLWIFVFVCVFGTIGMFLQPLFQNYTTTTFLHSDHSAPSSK
Chain of HTR2A (P28223 whole entry): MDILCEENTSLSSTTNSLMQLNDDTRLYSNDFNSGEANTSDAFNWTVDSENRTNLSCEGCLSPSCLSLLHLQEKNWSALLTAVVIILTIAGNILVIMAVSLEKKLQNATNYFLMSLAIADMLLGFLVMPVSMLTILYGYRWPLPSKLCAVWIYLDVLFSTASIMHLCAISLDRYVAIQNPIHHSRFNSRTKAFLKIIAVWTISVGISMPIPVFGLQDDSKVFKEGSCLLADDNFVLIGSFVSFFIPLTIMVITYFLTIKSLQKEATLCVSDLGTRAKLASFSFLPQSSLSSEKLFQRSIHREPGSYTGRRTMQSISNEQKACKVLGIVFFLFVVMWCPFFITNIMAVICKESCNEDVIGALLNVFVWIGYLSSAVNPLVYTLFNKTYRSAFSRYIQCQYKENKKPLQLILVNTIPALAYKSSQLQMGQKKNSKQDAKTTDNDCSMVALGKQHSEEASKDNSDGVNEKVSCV

Structure (SMILES): Cn1c(=O)c2c(c3cc(Nc4ccnc(F)c4Cl)ccc31)N[C@@H](C1CC1)C(F)(F)CO2 [compound 17, (S)-10-((3-chloro-2-fluoropyridin-4-yl)amino)-2-cyclopropyl-3,3-difluoro-7-methyl-1,2,3,4-tetrahydro-[1,4]oxazepino[2,3-c]quinolin-6(7H)-one]
- pIC50 [1]: < 5.00
- Emax ([1]; HTR2A, Calcium Flux, Antagonist, read-out: Max Response): 5.28%
- pIC50 [2]: < 5.00
- Emax ([2]; nAChR(a4/b2), Ion Channel, Blocker, read-out: Max Response): 0%
- pEC50 [3]: < 5.00
- Emax ([3]; DRD1, cAMP, Agonist, read-out: Max Response): 0%
- Emax ([4]; read-out: Max Response): 0%
- pIC50 ([4]; read-out: RC50 (IC50)): < 5.00
- pIC50 [5]: < 5.00
- Emax ([5]; OPRK1, cAMP, Antagonist, read-out: Max Response): 0.95%
- pEC50 [6]: 5.65
- Hill ([6]; CHRM2, cAMP, Agonist): 1.63
- Emax ([6]; CHRM2, cAMP, Agonist, read-out: Max Response): 92.6%
- pEC50 [7]: 5.04
- Hill ([7]; HTR1B, cAMP, Agonist): 0.76
- Emax ([7]; HTR1B, cAMP, Agonist, read-out: Max Response): 50.3%
- pIC50 [8]: < 5.00
- Emax ([8]; SERT, Transporter, Blocker, read-out: Max Response): 0%
- pEC50 [9]: < 5.00
- Emax ([9]; ADRA1A, Calcium Flux, Agonist, read-out: Max Response): 0%
- pIC50 [10]: < 5.00
- Emax ([10]; HTR3A, Ion Channel, Blocker, read-out: Max Response): 0%
- Hill [11]: 3.28
- Emax ([11]; read-out: Max Response): 93.1%
- pIC50 ([11]; read-out: RC50 (IC50)): 5.34
- pIC50 [12]: 5.36
- Hill ([12]; OPRM1, cAMP, Antagonist): 0.72
- Emax ([12]; OPRM1, cAMP, Antagonist, read-out: Max Response): 56.3%
- Emax ([13]; read-out: Max Response): 0%
- pIC50 ([13]; read-out: RC50 (IC50)): < 5.00
- pIC50 [14]: < 5.00
- Emax ([14]; HTR1A, cAMP, Antagonist, read-out: Max Response): 0%
